Where a SMILES comes first, the peptide text is derived from it. Bridges are numbered along the chain shown (N, C = ends).
Assays:
Interleukin-6 (IL-6) = assay: Determination of inflammatory parameters: Interleukin-6 release in human fresh blood (ELISA); format: cell-based; settings: for inflammatory proteins such as the inflammation marker Interleukin-6 (IL-6): human immune cells from the blood, protein at a small concentration; for Concentration of Interleukin-6 (average of three measurements): human fresh blood, 24 hours at 37° C.
Procedure: For the examination, human immune cells from the blood are mixed with protein according to the present invention at a small concentration and are incubated in a manner common in laboratories. Subsequently, marker proteins for inflammations are determined by conventional methods.
Fresh human blood has a very sensitive reaction to pro-inflammatory molecules, among other things, with a release of the inflammation marker Interleukin-6 (IL-6). For determining the pro-inflammatory reaction, samples of human fresh blood with different concentrations of the protein comprising amino acid sequence SEQ ID NO:3 were incubated at the following concentrations: 10 μg/ml, 3 μg/ml, 1 μg/ml. After an incubation of 24 hours at 37° C., the inflammation marker Interleukin-6 was quantitatively determined in the solution via ELISA. LPS served as a positive control.

[1] = system: pulmonary oedema in Wistar rats; assay: Experimental animal study pulmonary oedema: oxygen content of arterial blood after acid lung rinsing; format: in vivo, rat; settings: 125 μg protein intratracheal, 180 minutes after lung rinsing, before rinsing = 100%, without protein 20%
From the text: For the simulation of an acute lung injury and for the formation of a pulmonary oedema, the lungs of laboratory animals, e.g., mice or rats, can be rinsed several times with an acidified saline solution in a manner common in laboratories (for example, according to Isik F. et al., Eur J Cardiothorac Surg (2005); 28: 301-305). The result is a decrease in lung function. If a protein according to the present invention, e.g., a protein of amino acid sequence SEQ ID NO:1, SEQ ID NO:2 or SEQ ID NO:3, is injected as a fog or in an aqueous solution into the lungs of the laboratory animals, a distinct improvement in the lung function will occur within 3 to 5 hours, as indicated by the increased oxygen content in the arterial blood. Thus, a protein according to the present invention can be used for the treatment of oedemas such as pulmonary oedemas.
Male Wistar rats (weighing from 250 g to 350 g) are anesthetized with Rompun® (0.02 ml/100 g) and Ketavet® (0.1 ml/100 g). The respiration is done with a cycle of […], with an inhalation time of 0.2 seconds and an exhalation time of 0.5 seconds. The body temperature ranges, on average, from 37° C. to 39° C. […]
At intervals of 60 minutes each, arterial blood (0.1 ml) is withdrawn from the animals, and the oxygen content is determined in % relative to the normal value.
The verification of the stimulating effect of a protein according to the present invention, e.g., of a protein comprising amino acid sequence SEQ ID NO:1, SEQ ID NO:2 or SEQ ID NO:3, on the lung function is made via experimental animal studies in which a pulmonary oedema is induced. […] In each case, 5 animals are used for objectifying the measured values.
For the intratracheal inhalation, 125 μg protein are, in each case, dissolved in 150 mM saline solution pH 7.3. The oxygen content of the arterial blood is measured immediately before rinsing the lungs, 60 minutes after rinsing the lungs and 180 minutes after rinsing the lungs.
The oxygen content immediately before rinsing the lungs is determined to be 100%. […]

Compound	inflammatory proteins such as the inflammation marker Interleukin-6 (IL-6) (Interleukin-6 (IL-6))	oxygen content in the arterial blood [1]	Concentration of Interleukin-6 (average of three measurements) (Interleukin-6 (IL-6); 1 μg/ml)	Concentration of Interleukin-6 (average of three measurements) (Interleukin-6 (IL-6); 10 μg/ml)	Concentration of Interleukin-6 (average of three measurements) (Interleukin-6 (IL-6); 1 nμg/ml)	Concentration of Interleukin-6 (average of three measurements) (Interleukin-6 (IL-6); 3 nμg/ml)
C[C@@H]1NC(=O)CNC(=O)[C@H](CCC(=O)O)NC(=O)[C@@H]2CCCN2C(=O)[C@H]([C@@H](C)O)NC(=O)[C@H](CCC(=O)O)NC(=O)[C@H](CCCNC(=N)N)NC(=O)[C@H](CCC(N)=O)NC(=O)[C@@H](NC(=O)[C@@H]2CCCN2C(=O)[C@H](CO)NC(=O)[C@@H](N)CCCCN)CSSC[C@@H](C(=O)N2CCC[C@H]2C(=O)N[C@@H](CO)C(=O)O)NC(=O)CNC(=O)CNC(=O)[C@H](CCCCN)NC(=O)[C@H](C)NC(=O)[C@H](CCC(=O)O)NC1=O [SEQ ID NO:2] (H-KSPCQRETPEGAEAKGGCPS-OH; disulfide 4-18)	cannot be detected	63%	–	–	–	–
C[C@@H]1NC(=O)CNC(=O)[C@H](CCC(=O)O)NC(=O)[C@@H]2CCCN2C(=O)[C@H]([C@@H](C)O)NC(=O)[C@H](CCC(=O)O)NC(=O)[C@H](CCCNC(=N)N)NC(=O)[C@H](CCC(N)=O)NC(=O)[C@@H](N)CSSC[C@@H](C(=O)O)NC(=O)CNC(=O)CNC(=O)[C@H](CCCCN)NC(=O)[C@H](C)NC(=O)[C@H](CCC(=O)O)NC1=O [SEQ ID NO:3, (NH2)Cys-Gln-Arg-Glu-Thr-Pro-Glu-Gly-Ala-Glu-Ala-Lys-Gly-Gly-Cys(COOH)] (H-CQRETPEGAEAKGGC-OH; disulfide 1-15)	cannot be detected	70%	less than 0.5 pg/ml	less than 0.5 pg/ml	less than 0.5 pg/ml	less than 0.5 pg/ml
CC[C@H](C)[C@H](NC(=O)[C@H](C)N)C(=O)N[C@@H](CCCCN)C(=O)N[C@@H](CO)C(=O)N1CCC[C@H]1C(=O)N[C@H]1CSSC[C@@H](C(=O)N2CCC[C@H]2C(=O)N[C@@H](CO)C(=O)N[C@H](C(=O)N[C@@H](Cc2c[nH]cn2)C(=O)N[C@H](C(=O)O)C(C)C)[C@@H](C)O)NC(=O)CNC(=O)CNC(=O)[C@H](CCCCN)NC(=O)[C@H](C)NC(=O)[C@H](CCC(=O)O)NC(=O)[C@H](C)NC(=O)CNC(=O)[C@H](CCC(=O)O)NC(=O)[C@@H]2CCCN2C(=O)[C@H]([C@@H](C)O)NC(=O)[C@H](CCC(=O)O)NC(=O)[C@H](CCCNC(=N)N)NC(=O)[C@H](CCC(N)=O)NC1=O [SEQ ID NO:1] (H-AIKSPCQRETPEGAEAKGGCPSTHV-OH; disulfide 6-20)	cannot be detected	60%	–	–	–	–

Source: patent US8372799B2, “Reverse protein” (Apeptico Forschung und Entwicklung GmbH, priority 2007, dated 2013)
